{"source": "patent US20030008331A1", "about": "“Directed evolution biosensors” (priority 1998, published 2003)", "test_system": "cells which do not express the β2-adrenergic receptor (wild type)", "experiment": "melanophore pigment dispersion assay, wild type cells", "format": "cell-based, frog", "details": "wild type melanophores, two successive tests", "data": [{"smiles": "CC(C)(C)NCC(O)c1ccc(O)c(CO)c1", "note": "(stereo not shown) [salbutamol]", "values": [{"measurement": "response of cells to challenge", "result": "did not respond"}]}]}
